Paper PMC12070314, “Efficient Small-Molecule Reversal Agents for Anticoagulant Fondaparinux” (ACS Pharmacology & Translational Science, 2025)

Columns and labels:
[1] = system: FXa/ATIII inhibited by fondaparinux; test: In vitro FXa/ATIII enzymatic assay of anti-fondaparinux activity; assay type: biochemical, human; details: for Percent recovery of peptide substrate hydrolysis: [fond] = [antidote] = 15 μM, three reaction times
Protocol: The activity of two spermine derivatives, 3AC and 3FF, as fond antidotes was evaluated with an in vitro enzymatic assay related to blood coagulation, as previously described (Figure A). , In brief, fond promotes a conformational change in ATIII toward an efficient inhibitor of FXa. Addition of a ligand of fond hinders the inhibitory action of ATIII restoring the FXa hydrolytic activity, which has been used as an indirect measurement of antifond behavior.
Recombinant antithrombin III and coagulation factor Xa were obtained from two different kits, Berichrom Heparin test (SIEMENS) and Kinetichrome Anti-Xa Heparin kit (Iduron). Methods for both kits are similar, but not identical. Differences will be spotted by method A (SIEMENS) and method B (Iduron). Following the manufacturer’s instructions, stock solutions were prepared as follows: human antithrombin III (1 IU/mL) and factor Xa reagent (0.4 μg/mL, human plasma fraction with additives Tris, sodium chloride, and EDTA). Chromogenic substrate specific for factor Xa was dissolved at 4 mM concentration (A: Z-D-Leu-Gly-Arg-ANBA-methyl amide, and B: Z-D-Arg-Gly-Arg-pNA). Additionally, either 4-nitroaniline (A) or N-Boc-4-nitroaniline (B) was added to the substrate solution at a concentration of 1.6 mM and used as an internal standard to quantify the hydrolysis of the chromogenic substrate. All compounds were dissolved in Milli-Q water at the desired stock concentrations prior to start of the assays and kept at 4 °C. Various concentrations of the ligand, fondaparinux (up to 15 μM) or LMWH (0.1 to 10 μM), human antithrombin III solution (2 μL), and factor Xa reagent solution (35 μL) were consecutively added to an Eppendorf vial and brought to a total volume of 145 μL. Then, 20 μL of reagent substrate solution was added to start the experiment, and the mixture was vigorously shaken at 25 °C. 20 μL aliquots were taken at 5/10/15/20/30/50/80/120 minutes, diluted with 40 μL of acetic acid (20% v/v), and injected into the analytical HPLC system. The gradient ranged from 5% of ACN (0.1% formic acid) in water (0.1% formic acid) to 100% of ACN in 24 min using a 15 × 4.6 mm KROMAPHASE C18 5.0 μm column. In A: the retention time of cleaved chromophore was 9.1 min, retention time of chromogenic substrate was 13.9 min, and retention time of 4-nitroaniline was 15.4 min. In B: the retention time of chromogenic substrate was 11.0 min, retention time of cleaved chromophore was 15.2 min, and retention time of N-Boc-4-nitroaniline was 21.7 min. FXa/ATIII activity was represented as the percent of hydrolysis, which was calculated from the normalized area of the cleaved peptide at 405 nm at each corresponding time point. The experiment carried out in the absence of heparinoid was considered as the maximum of activity, while the experiment with heparinoid and no ligand was considered as negative control (maximum inhibition of FXa by heparinoid). The concentration of heparinoid was selected for the measurement to render significant inhibition within experimental time while allowing the reaction to proceed.

[2] = system: freshly extracted mouse blood; test: Naked-eye ex vivo blood coagulation assay; assay type: cell-based; details: for Reversal of fond anticoagulant effect (clot formation by vial inversion): 100 μM fond + 200 μM antidote, 5 min
Protocol: Considering the results obtained in the in vitro assays, we aimed to test our molecules in a more relevant and challenging environment. To this aim, we performed naked-eye ex vivo coagulation assays (Figure ). Freshly extracted mouse blood samples were treated with fond (100 μM final concentration) in the absence and in the presence of different antidotes (two molar equivalents). Blood coagulation was visually inspected by the simple inversion of the vials. For a fair comparison between different series, all of the experiments were done in parallel with the corresponding control samples of untreated mouse blood (labeled “0” in Figure ). […] The effect of antidotes alone on blood coagulation was also tested (Figure B), showing that neither of the three small molecules appreciably changed the coagulation properties.
This naked-eye coagulation test is an adaptation of the whole blood clotting time assay. , Freshly collected mouse blood was directly used without further treatment. 300 μL aliquots were dispensed in Eppendorf tubes, to which fondaparinux (100 μM), and/or potential antidotes (3AC, 3FF, ciraparantag, or protamine, 200 μM) were added, and a picture was taken after 5 min. Clot formation was verified by inverting the Eppendorf vials.

Row | Compound | Percent recovery of peptide substrate hydrolysis [1] | Reversal of fond anticoagulant effect (clot formation by vial inversion) [2] | Effect on FXa hydrolytic activity ([1]; fond 15 μM, FXa/ATIII, no antidote) | Effect on blood coagulation (vial inversion) ([2]; fond 100 μM alone) | Effect of antidote alone on blood coagulation ([2]; 200 μM antidote, no fond)
1 | Oc1ccccc1CNCCCNCCCCNCCCNCc1ccccc1O [Compound 3AA] | lower potency as antidotes |  |  |  | 
2 | COc1ccccc1CNCCCNCCCCNCCCNCc1ccccc1OC [Compound 3BB] | lower potency as antidotes |  |  |  | 
3 | N=C(N)NCCC[C@H](N)C(=O)NCCCN1CCN(CCCNC(=O)[C@@H](N)CCCNC(=N)N)CC1 [cir, ciraparantag, reference compound] | performs similarly to the spermine derivative ligand (3AA) | good antidote, though qualitatively less effective than 3AC/3FF |  |  | 
4 | CO[C@H]1O[C@H](COS(=O)(=O)O)[C@@H](O[C@@H]2O[C@@H](C(=O)O)[C@@H](O[C@H]3O[C@H](COS(=O)(=O)O)[C@@H](O[C@@H]4O[C@H](C(=O)O)[C@@H](O[C@H]5O[C@H](COS(=O)(=O)O)[C@@H](O)[C@H](O)[C@H]5NS(=O)(=O)O)[C@H](O)[C@H]4O)[C@H](OS(=O)(=O)O)[C@H]3NS(=O)(=O)O)[C@H](O)[C@H]2OS(=O)(=O)O)[C@H](O)[C@H]1NS(=O)(=O)O [fond, Fondaparinux] |  |  | clearly reduces the hydrolytic activity | anticoagulant effect | 
5 | protamine | practically no in vitro activity against fond | fails to be an antidote of fond |  |  | acts as an anticoagulant itself
